In US12180192B2, “Modulators of THR-β and methods of use thereof” (ALIGOS THERAPEUTICS, INC., priority 2019, dated 2024):

Assays:
[1] = molecular target: T1, human thyroid receptor beta ligand-binding domain (LBD) (Homo sapiens, UniProt P10828); assay: TR-FRET thyroid receptor beta coactivator assay (THR biochemical assay, Assay 1); conditions: for EC50: THR-beta, TR-FRET coactivator assay, read-out: Activity category Assay 1 (EC50, THR-beta agonist); for Emax: Table 5, Assay 1, THRβ, read-out: Activity category Assay 1 THRβ (Emax)
T1 construct: purchased Invitrogen
T1 sequence (P10828 217-461 limits assumed): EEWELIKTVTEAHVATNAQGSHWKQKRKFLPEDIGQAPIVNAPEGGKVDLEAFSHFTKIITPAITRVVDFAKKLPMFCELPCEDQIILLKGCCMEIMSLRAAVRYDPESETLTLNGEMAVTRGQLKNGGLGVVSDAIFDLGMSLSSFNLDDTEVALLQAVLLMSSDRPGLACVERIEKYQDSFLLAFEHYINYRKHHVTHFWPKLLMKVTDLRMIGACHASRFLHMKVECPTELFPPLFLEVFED
From the text: (§1) The TR-FRET thyroid receptor beta coactivator assay was used with slight, optimized modifications of the manufacturer's protocol (Invitrogen). The assay uses a terbium-labeled anti-GST antibody, a glutathione-S-transferase (GST) tagged human thyroid receptor, beta or alpha, ligand-binding domain (LBD), and a fluorescein labeled SRC2-2 coactivator peptide. […] The energy transfer is detected as an increase in the fluorescence emission of the fluorescein acceptor, and a decrease in the fluorescence emission of the terbium donor. The assay is performed in a 384-well black plate in a final volume of 20 μL. Serial dilution of various test agonists was performed in DMSO (1% final DMSO concentration) and added to the test plate. Thyroid receptor beta LBD is added to the plate at a final concentration of 1 nM, followed by the mixture of the fluorescein labeled SRC2-2 coactivator peptide, and the terbium-labeled anti-GST antibody at final concentrations of 200 nM and 2 nM respectively. The assay is incubated for 1 hr at rt protected from light.

[2] = molecular target: T2, human thyroid receptor alpha ligand-binding domain (LBD) (Homo sapiens, UniProt P10827); assay: TR-FRET thyroid receptor alpha coactivator assay (THR biochemical assay, Assay 1); conditions: for EC50: Table 4, THR-alpha, read-out: Activity category Assay 1 (EC50, THR-alpha agonist activity); for Emax: Table 5, THRα, read-out: Activity category Assay 1 THRα (Emax)
T2 construct: purchased Invitrogen
From the text: as §1

THR beta = molecular target: T3, THR beta (Homo sapiens, UniProt P10828); assay: HEK293T THR beta/RXR luciferase reporter assay (Assay 2); assay type: cell-based; conditions: for Emax: HEK-293T, Table 5, Assay 2, THRβ, read-out: Activity category Assay 2 THRβ (Emax); for EC50: THR-beta, HEK293T reporter assay, read-out: Activity category Assay 2 (EC50, THR-beta agonist)
T3 construct: expressed in transfected cells; host or cells: HEK293T (ATCC CRL-3216)
T3 sequence (P10828 1-461): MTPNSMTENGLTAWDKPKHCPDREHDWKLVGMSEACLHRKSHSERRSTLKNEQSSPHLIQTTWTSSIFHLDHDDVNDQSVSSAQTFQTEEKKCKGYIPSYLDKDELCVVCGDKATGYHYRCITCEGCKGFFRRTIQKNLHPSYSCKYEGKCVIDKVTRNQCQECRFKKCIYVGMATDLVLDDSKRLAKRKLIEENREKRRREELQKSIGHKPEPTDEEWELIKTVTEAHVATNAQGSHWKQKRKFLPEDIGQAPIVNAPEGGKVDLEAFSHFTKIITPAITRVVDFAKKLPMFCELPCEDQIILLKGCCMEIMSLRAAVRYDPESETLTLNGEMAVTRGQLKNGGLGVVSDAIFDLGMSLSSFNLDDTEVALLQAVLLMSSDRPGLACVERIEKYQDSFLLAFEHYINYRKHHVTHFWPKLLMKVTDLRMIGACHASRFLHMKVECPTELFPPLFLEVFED
T3 sequence (P19793 1-462 partner): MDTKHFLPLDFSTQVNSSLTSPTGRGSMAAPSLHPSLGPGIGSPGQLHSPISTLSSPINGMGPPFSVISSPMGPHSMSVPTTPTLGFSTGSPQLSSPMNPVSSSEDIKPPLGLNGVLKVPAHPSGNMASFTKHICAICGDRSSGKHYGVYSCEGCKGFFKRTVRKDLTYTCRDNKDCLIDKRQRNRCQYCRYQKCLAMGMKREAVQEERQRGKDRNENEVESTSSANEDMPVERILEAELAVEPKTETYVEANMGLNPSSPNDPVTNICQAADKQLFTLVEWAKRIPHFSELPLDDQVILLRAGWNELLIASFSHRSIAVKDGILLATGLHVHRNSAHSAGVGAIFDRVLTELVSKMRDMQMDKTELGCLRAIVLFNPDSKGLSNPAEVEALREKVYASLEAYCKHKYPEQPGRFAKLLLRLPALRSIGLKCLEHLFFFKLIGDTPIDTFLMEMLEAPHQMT
Description: (§2) HEK293T Reporter THRalpha/Beta/RXR Reporter Assay (Assay 2)
(§3) The purpose of this assay is to evaluate the effect of compounds on the thyroid hormone nuclear receptor pathway in HEK293T cells. To this end, HEK293T cells are transiently transfected with a luciferase reporter under the control of the thyroid response element (TRE), an RXR expression plasmid and either a THR alpha or THR beta expression plasmid. Transfected cells are stimulated with test compounds for 18-24 hours before activation of the thyroid hormone pathway is measured via a luciferase read-out.
(§4) Procedure. […] Ten five-fold dilutions of test compounds are prepared in DMSO and 30 nL are dispensed to the cells. […] Approximately 18-24 h after compound addition, 384 well plates are allowed to adjust to rt, 30 μL One-Glo (Promega catalog #E6120) is added to each well and luminescence is measured on a Perkin Elmer Enspire plate reader. Percent agonism is calculated using the following equation: 100× (sample-negative control)/(positive control-negative control).

THR alpha = molecular target: T4, THR alpha (Homo sapiens, UniProt P10827); assay: HEK293T THR alpha/RXR luciferase reporter assay (Assay 2); assay type: cell-based; conditions: Assay 2; for Emax: HEK-293T, Table 5, THRα, read-out: Activity category Assay 2 THRα (Emax); for EC50: Table 4, THR-alpha, read-out: Activity category Assay 2 (EC50, THR-alpha agonist activity)
T4 construct: expressed in transfected cells; host or cells: HEK293T (ATCC CRL-3216)
T4 sequence (P10827 1-410 isoform P10827-2): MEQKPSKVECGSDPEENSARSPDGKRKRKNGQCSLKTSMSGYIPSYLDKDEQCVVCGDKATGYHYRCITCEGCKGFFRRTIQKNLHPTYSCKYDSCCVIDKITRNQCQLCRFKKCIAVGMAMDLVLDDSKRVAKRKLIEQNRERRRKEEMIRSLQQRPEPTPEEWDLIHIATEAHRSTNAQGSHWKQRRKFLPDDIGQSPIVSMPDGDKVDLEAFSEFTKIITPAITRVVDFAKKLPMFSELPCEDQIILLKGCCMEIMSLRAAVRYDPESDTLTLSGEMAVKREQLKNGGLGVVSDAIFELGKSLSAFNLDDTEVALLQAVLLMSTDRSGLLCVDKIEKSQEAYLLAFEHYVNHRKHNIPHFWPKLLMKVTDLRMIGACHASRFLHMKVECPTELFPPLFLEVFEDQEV
T4 sequence (P19793 1-462 partner): T3 sequence (P19793 1-462 partner)
Description: as §2, §3, §4

Compound | EC50 [1] [µM] | Emax [1] [%] | EC50 [2] [µM] | Emax [2] [%] | Emax (THR beta) [%] | EC50 (THR beta) [µM] | Emax (THR alpha) [%] | EC50 (THR alpha) [µM]
Cc1cc(-n2nc(C#N)c(=O)[nH]c2=O)cc(C)c1Cc1cnc2[nH]cc(C(C)C)c2n1 [Compound 66, 2-[4-[(7-isopropyl-5H-pyrrolo[2,3-b]pyrazin-2-yl)methyl]-3,5-dimethyl-phenyl]-3,5-dioxo-1,2,4-triazine-6-carbonitrile] | 0.05 to 0.25 | 50 to 75 | 0.25 to 1 | < 50 | > 75 | 1 to 10 | 50 to 75 | 1 to 10
Nc1nn(-c2cc(Cl)c(Oc3cc(Cc4ccccc4)c(=O)[nH]n3)c(Cl)c2)c(=O)[nH]c1=O [Compound 65, 6-amino-2-[4-[(5-benzyl-6-hydroxypyridazin-3-yl)oxy]-3,5-dichlorophenyl]-4H-1,2,4-triazine-3,5-dione] | < 0.05 | < 50 | 0.25 to 1 | < 50 | > 75 | 0.05 to 0.25 | < 50 | 1 to 10
CC(C)c1c[nH]c2ccc(Oc3c(Cl)cc(-n4nc(N)c(=O)[nH]c4=O)cc3Cl)cc12 [Compound 41, 6-amino-2-[3,5-dichloro-4-[(3-isopropyl-1H-indol-5-yl)oxy]phenyl]-4H-1,2,4-triazine-3,5-dione] | < 0.05 | 50 to 75 | < 0.05 | 50 to 75 | > 75 | < 0.05 | 50 to 75 | < 0.05
N#Cc1nn(-c2cc(Cl)c(Oc3ccc4[nH]cc(C#N)c4c3)c(Cl)c2)c(=O)[nH]c1=O [Compound 17, 5-[2,6-dichloro-4-(6-cyano-3,5-dioxo-4H-1,2,4-triazin-2-yl)phenoxy]-1H-indole-3-carbonitrile] | < 0.05 | < 50 | > 25 | < 50 | > 75 | 1 to 10 | < 50 | > 10
CO[C@H]1C[C@@H](c2cc(Oc3c(Cl)cc(-n4nc(N)c(=O)[nH]c4=O)cc3Cl)n[nH]c2=O)C1 [Compound 103] | 1 to 25 | < 50 | > 25 | < 50 | < 50 | 1 to 10 | < 50 | > 10
Cc1cc(-n2nc(C#N)c(=O)[nH]c2=O)cc(C)c1Cc1ccc2[nH]cc(C(C)C)c2c1 [Compound 3, 2-(4-((3-isopropyl-1H-indol-5-yl)methyl)-3,5-dimethylphenyl)-3,5-dioxo-2,3,4,5-tetrahydro-1,2,4-triazine-6-carbo-nitrile] | < 0.05 | 50 to 75 | > 25 | < 50 | > 75 | 0.05 to 0.25 | > 75 | 0.25 to 1
CC(C)(O)c1cc(Oc2c(Cl)cc(-n3nc(N)c(=O)[nH]c3=O)cc2Cl)n[nH]c1=O [Compound 60, 6-amino-2-(3,5-dichloro-4-[[5-(2-hydroxypropan-2-yl)-6-oxo-1H-pyridazin-3-yl]oxy]phenyl)-4H-1,2,4-triazine-3,5-dione] | 0.25 to 1 | < 50 | 1 to 25 | < 50 | > 75 | 1 to 10 | > 75 | 1 to 10
Nc1nn(-c2cc(Cl)c(Oc3cc(-c4cccc(F)c4)c(=O)[nH]n3)c(Cl)c2)c(=O)[nH]c1=O [Compound 69, 6-Amino-2-(3,5-dichloro-4-((5-(3-fluorophenyl)-6-oxo-1,6-dihydropyridazin-3-yl)oxy)phenyl)-1,2,4-triazine-3,5(2H,4H)-dione] | 0.05 to 0.25 | < 50 | 0.25 to 1 | < 50 | 50 to 75 | 0.05 to 0.25 | 50 to 75 | 0.05 to 0.25
